Values after ≈ are worked out from the molar mass of the structure shown. Values joined by “and” are separate entries in the source; they are usually repeats but may differ in a detail not shown here. Equal values may be shown once. Read-outs that look alike come from different tables or passages of the source.
Key:
Format in all cases: cell-based
[1] = tested on: Trichophyton mentagrophytes; assay: agar well diffusion assay, T. mentagrophytes; details: one entry across 48 hr and 72 hr
Description: (§1) Both qualitative and quantitative screens were performed. Qualitative screening was accomplished using the agar well diffusion assay technque while quantitative screening was accomplished by the two-fold (broth) serial dilution method to determine the minimum inhibitory concentration (MIC). Innoculation was accomplished with one loop-full of a 1:10 dilution of the 24-hour-old broth culture, (fungal cultures and M.smegmatis more often required 48 to 72 hours of incubation) of the test organisms in sterile water. Streptomycin sulfate was used as a positive control for antibacterial activity while amphitericin B was used as an antifungal positive control. Organisms utilized in the screens included gram-positive, gram-negative, and acid-fast bacteria as well as different types of fungi. […] An intermediate type activity is seen where R is hydrogen. However, where R is lengthened up to C15 a decrease in activity was noted. Total saturation of the two double bonds in the compounds having a methyl side chain lead, in most cases, to an increase in both antifungal and antibacterial activity.

[2] = tested on: Bacillus subtilis; assay: agar well diffusion assay, B. subtilis; details: from edge of agar well
Description: as §1

[3] = tested on: Mycobacterium smegmatis; assay: agar well diffusion assay, M. smegmatis; details: from edge of agar well
Description: as §1

[4] = tested on: Pseudomonas aeruginosa; assay: agar well diffusion assay, Ps. aeruginosa; details: from edge of agar well
Description: as §1

[5] = tested on: Candida albicans; assay: agar well diffusion assay, C. albicans; details: from edge of agar well
Description: as §1

[6] = tested on: Aspergillus niger; assay: agar well diffusion assay, A. niger; details: from edge of agar well
Description: as §1

[7] = tested on: Staphylococcus aureus; assay: agar well diffusion assay, S. aureus; details: from edge of agar well
Description: as §1

[8] = tested on: Escherichia coli; assay: agar well diffusion assay, E. coli; details: from edge of agar well
Description: as §1

[9] = tested on: Saccharomyces cerevisiae; assay: agar well diffusion assay, S. cerevisiae; details: from edge of agar well
Description: as §1

[10] = tested on: Candida albicans; assay: MIC, two-fold (broth) serial dilution, C. albicans; details: Candida albicans, read-out: MIC
Description: as §1

[11] = tested on: erythrocyte (heat-induced hemolysis); assay: erythrocyte membrane stabilization assay (heat-induced erythrocyte hemolysis); details: Erythrocyte
Description: The published procedure (Proc. Soc. Exp. Biol. Med. 1967; 125; 837-842 Brow et al) for in vitro assay for antiinflammatory agents based on stabilization of erythrocytes was used. All compounds were prepared for administration by dissolving in physiologic saline or suspending in 2% ethanol in saline and the pH adjusted to 7.4 The concentrations tested in one series are given in Table 8. Aspirin (ASA) and phenylbutazone were used as positive controls for comparison of activity. Tests using this procedure were successfully and repeatedly using either 40% or 20% RBC suspensions.

[12] = tested on: Bacillus subtilis; assay: MIC, two-fold (broth) serial dilution, B. subtilis
Description: as §1

[13] = tested on: Mycobacterium smegmatis; assay: MIC, two-fold (broth) serial dilution, M. smegmatis
Description: as §1

[14] = tested on: Staphylococcus aureus; assay: MIC, two-fold (broth) serial dilution, S. aureus
Description: as §1

[15] = 24 hr, listed as Streptomycin-SO4
[16] = 48 hr, listed as Streptomycin-SO4

Compound: CCCCCc1cc(O)c2c(c1)OC(C)(CCCC(C)C)CC2 (stereo not shown) [CBC (X), 2-methyl-2(4'-methyl-pentyl)-5-hydroxy-7-pentyl chroman]
- agar well diffusion result in words [1]: No growth
- width of inhibition zone ([2]; 24 hr): 4.0 mm
- width of inhibition zone ([2]; 48 hr): 4.0 mm
- width of inhibition zone ([3]; 24 hr): 7. mm
- width of inhibition zone ([3]; 48 hr): 7. mm
- width of inhibition zone ([4]; 24 hr): 1. mm
- width of inhibition zone ([4]; 48 hr): 1. mm
- width of inhibition zone ([5]; 48 hr): 2. mm
- width of inhibition zone ([5]; 72 hr): 3. mm
- width of inhibition zone ([6]; 48 hr): 1. mm
- width of inhibition zone ([6]; 72 hr): 1. mm
- width of inhibition zone ([7]; 24 hr): 13. mm
- width of inhibition zone ([7]; 48 hr): 13. mm
- width of inhibition zone ([8]; 24 hr): 5. mm
- width of inhibition zone ([8]; 48 hr): 5. mm
- width of inhibition zone ([9]; 48 hr): 7. mm
- width of inhibition zone ([9]; 72 hr): 7. mm

Compound: CCCCCc1cc(O)cc2c1C=CC(C)(CCC=C(C)C)O2 (stereo not shown) [Iso CBC (IX), 2-methyl-2(4'-methyl-pent-3'-enyl)-5-pentyl-7-hydroxy chromene]
- MIC ([10]; 48 h): 50 µg/mL (≈ 159 µM)
- MIC ([10]; 72 h): 100 µg/mL (≈ 318 µM)
- inhibition at 100 µM ([11]; read-out: inhibition of heat-induced erythrocyte hemolysis, Table 8, 1 × 10^-4 M): 75%
- MIC ([12]; Bacillus subtilis, 24 h, read-out: MIC): 0.78 µg/mL (≈ 2.48 µM)
- MIC ([12]; Bacillus subtilis, 48 h, read-out: MIC): 3.12 µg/mL (≈ 9.92 µM)
- MIC ([13]; Mycolicibacterium smegmatis, 24 h, read-out: MIC): 25 µg/mL (≈ 79.5 µM)
- MIC ([13]; Mycolicibacterium smegmatis, 48 h, read-out: MIC): 25 µg/mL (≈ 79.5 µM)

Compound: [H]/N=C(/N)N[C@H]1[C@H](O)[C@@H](O)[C@H](O[C@@H]2O[C@@H](C)[C@](O)(C=O)[C@H]2O[C@@H]2O[C@@H](CO)[C@H](O)[C@@H](O)[C@@H]2NC)[C@@H](N/C(N)=N\[H])[C@@H]1O [Streptomycin SO4, reference compound]
- width of inhibition zone ([2]; 24 hr): 7. mm
- width of inhibition zone [2, 15]: 11. mm
- width of inhibition zone ([2]; 48 hr): 8. mm
- width of inhibition zone [2, 16]: 10. mm
- width of inhibition zone ([3]; 24 hr): 20. mm
- width of inhibition zone ([3]; 48 hr): 22. mm
- width of inhibition zone ([4]; 24 hr): 3. mm
- width of inhibition zone [4, 15]: 7. mm
- width of inhibition zone ([4]; 48 hr): 3. mm
- width of inhibition zone [4, 16]: 6. mm
- MIC ([14]; 24 hr): 3.12 µg/mL (≈ 5.36 µM)
- MIC ([14]; 48 hr): 12.5 µg/mL and 6.25 µg/mL
- MIC [14, 16]: 12.5 µg/mL and 25.0 µg/mL and 25 µg/mL
- width of inhibition zone ([7]; 24 hr): 9. mm
- width of inhibition zone [7, 15]: 10. mm
- width of inhibition zone ([7]; 48 hr): 9. mm
- width of inhibition zone [7, 16]: 10. mm
- MIC ([12]; 24 hr): 3.12 µg/mL (≈ 5.36 µM)
- MIC ([12]; 48 hr): 25 µg/mL (≈ 43 µM)
- width of inhibition zone ([8]; 24 hr): 2. mm
- width of inhibition zone [8, 15]: 5. mm
- width of inhibition zone ([8]; 48 hr): 2. mm
- width of inhibition zone [8, 16]: 5. mm
- MIC ([13]; 24 hr): 1.56 µg/mL (≈ 2.68 µM)
- MIC [13, 15]: 1.56 µg/mL and 0.78 µg/mL
- MIC ([13]; 48 hr): 1.56 µg/mL (≈ 2.68 µM)
- MIC [13, 16]: 1.56 µg/mL and 0.78 µg/mL

Compound: Cc1ccc(C(=O)c2ccc(CC(=O)O)n2C)cc1 [Tolmetin, reference compound]
- inhibition at 200 µM ([11]; Table 9 Test 1 (20% RBC), 2.0 × 10^-4 M, read-out: percent inhibition of heat-induced erythrocyte hemolysis): 27%
